Patent EP0942911B1, “BENZOPYRANOPYRROLE AND BENZOPYRANOPYRIDINE ALPHA-1 ADRENERGIC COMPOUNDS” (Abbott Laboratories, priority 1996, dated 1998)
Structures can show the parent of a compound that is named as a salt. Where two headings read alike, the source gives them in different places.

Key:
Experiment in all cases: biochemical
α-1a adrenoreceptor = molecular target: T1, α-1a adrenoreceptor (Bos taurus, UniProt P18130); format: binding, bovine; settings: read-out: Radioligand Binding (Ki, nM) 1a (Bovine)
T1 sequence (P18130 1-466): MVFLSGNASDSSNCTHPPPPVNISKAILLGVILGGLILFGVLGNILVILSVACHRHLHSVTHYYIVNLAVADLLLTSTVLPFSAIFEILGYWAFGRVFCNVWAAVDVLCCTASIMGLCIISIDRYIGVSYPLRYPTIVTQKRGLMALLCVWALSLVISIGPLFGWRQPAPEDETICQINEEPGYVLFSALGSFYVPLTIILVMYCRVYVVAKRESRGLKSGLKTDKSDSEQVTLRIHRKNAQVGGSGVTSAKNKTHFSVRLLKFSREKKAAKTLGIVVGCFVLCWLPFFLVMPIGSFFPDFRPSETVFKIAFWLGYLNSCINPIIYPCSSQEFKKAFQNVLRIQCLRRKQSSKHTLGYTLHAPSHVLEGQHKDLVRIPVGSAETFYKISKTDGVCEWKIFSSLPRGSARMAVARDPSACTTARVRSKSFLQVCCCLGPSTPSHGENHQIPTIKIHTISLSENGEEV
Description: (§1) The cDNA clones encoding the α-1 adrenoreceptors (α-1a, α-1b, and α-1d) were obtained from TULCO (Triangle Universities Licensing Consortium, Research Triangle Park, NC) and inserted into the eukaryotic expression vector SnaB30. In this vector, expression of the adrenoreceptor gene is under the transcriptional control of an SV40 early promoter. Positive drug selection is provided by a neomycin-resistance gene. Mouse fibroblast cells (LTK) were transfected with the α1 expression plasmids and grown in Dulbecco's modified Eagle's medium (DMEM) containing 10% fetal calf serum and 30 µM G418. Stable G418-resistant parental lines were generated, with successful expression of adrenoreceptor protein monitored using radioligand binding techniques. Stable single cell clones derived from the parental lines were screened in adrenoreceptor binding assays to identify clones having high adrenoreceptor density. Roller bottle cultures of the cloned lines were used to provide cell membranes for subsequent adrenoreceptor binding characterization studies. A cell line containing the SnaB30 vector expressing the human erythropoietin gene served as a negative control.
(§2) For adrenoreceptor binding assays, large scale membrane preparations were utilized in which 6 million cells were seeded into small (450 cm^2) Corning tissue culture roller bottles. 200 mL of DMEM containing 10% fetal calf serum and 300 µM G418 were added to each roller bottle. A 95% air / 5% CO2 gas mixture (sterile) was injected into each roller bottle prior to sealing. The bottles were then incubated at 37 °C on a roller rack for 5 days. Cells were re-fed with fresh medium after 3 days in culture.
(§3) On the fifth day of culture, growth medium was removed from cells grown in roller bottles, and the cells were washed twice with PBS (Sigma, 120 mM NaCl, 2.7 mM KCl, 10 mM Na2HPO4-NaH2PO4, pH = 7.4). Cells were detached from the roller bottles by incubating for 15 minutes at 37 °C in a Tris-EDTA solution (10 mM Tris, 100 mM NaCl, 1 mM EDTA, pH = 7.4). The cell suspension from each roller bottle was decanted into tared centrifuge tubes and kept on ice. An aliquot of each cell suspension was generally taken for cell counting. Cells were centrifuged at 3000 X G for 5 min at 2-4 °C, washed with PBS and recentrifuged. The supernatant was decanted and the pellet weighed to determine the wet weight of cells. Cells were washed a final time in 40 vol 5 mM Tris-HCl, 5 mM EDTA, pH = 7.7, and centrifuged at 40,000 X G for 10 minutes. Cells were homogenized in 10 mL of 50 mM Tris-HCl, 5 mM EDTA (pH = 7.4) and diluted to 40 mL/tube. Homogenates were centrifuged at 40,000 X G for 10 minutes. The supernatant was decanted and the pellets rehomogenized in 50 mM Tris-HCl (pH = 7.4) and centrifuged as before. The supernatant was decanted and the homogenate resuspended in 6.25 volumes (per gram wet weight) of 50 mM Tris-HCl and aliquots of the pooled homogenates frozen in liquid N2 and stored at -70 °C until the time of assay. Rat submaxillary glands were used for α-1A adrenoreceptors and were prepared essentially as described (Michel, A. D., Loury, D. N. and Whiting, R. L., Brit. J. Pharmacol. 98: 83-889 (1989)).
(§4) Receptor binding assays for α-1 adrenoreceptors were performed essentially as described by Greengrass and Bremner (Eur. J. Pharmacol. 55: 323-326 (1979)). […] Radioactivity was determined by standard liquid scintillation techniques. Data were analyzed as previously described (Hancock, A. A., Kyncl, J. J., Martin, Y. C. and DeBernardis, J. F., J. Receptor Res. 8: 23-46 (1988)).

α-1d adrenoreceptor = molecular target: T2, α-1d adrenoreceptor (Rattus norvegicus, UniProt P23944); format: binding; settings: read-out: Radioligand Binding (Ki, nM) 1d (Rat)
T2 sequence (P23944 1-561): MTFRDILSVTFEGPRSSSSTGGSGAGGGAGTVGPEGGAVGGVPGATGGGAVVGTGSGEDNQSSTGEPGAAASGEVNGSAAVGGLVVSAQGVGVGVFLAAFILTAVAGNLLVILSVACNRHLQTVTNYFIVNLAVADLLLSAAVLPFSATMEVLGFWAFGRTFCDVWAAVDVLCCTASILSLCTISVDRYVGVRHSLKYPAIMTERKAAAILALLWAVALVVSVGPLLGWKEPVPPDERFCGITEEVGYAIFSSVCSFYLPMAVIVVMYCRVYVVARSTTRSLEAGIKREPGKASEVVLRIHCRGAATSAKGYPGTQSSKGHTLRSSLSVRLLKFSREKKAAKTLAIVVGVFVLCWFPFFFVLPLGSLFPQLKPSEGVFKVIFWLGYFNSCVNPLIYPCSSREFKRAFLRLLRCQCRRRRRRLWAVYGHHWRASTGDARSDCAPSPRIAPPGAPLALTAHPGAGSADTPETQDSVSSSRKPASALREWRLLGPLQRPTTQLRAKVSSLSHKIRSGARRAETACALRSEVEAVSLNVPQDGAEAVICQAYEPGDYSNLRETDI
Description: as §1, §2, §3, §4

α-1b adrenoreceptor = molecular target: T3, α-1b adrenoreceptor (Mesocricetus auratus, UniProt P18841); format: binding, hamster; settings: read-out: Radioligand Binding (Ki, nM) 1b (Hamster)
T3 sequence (P18841 1-515): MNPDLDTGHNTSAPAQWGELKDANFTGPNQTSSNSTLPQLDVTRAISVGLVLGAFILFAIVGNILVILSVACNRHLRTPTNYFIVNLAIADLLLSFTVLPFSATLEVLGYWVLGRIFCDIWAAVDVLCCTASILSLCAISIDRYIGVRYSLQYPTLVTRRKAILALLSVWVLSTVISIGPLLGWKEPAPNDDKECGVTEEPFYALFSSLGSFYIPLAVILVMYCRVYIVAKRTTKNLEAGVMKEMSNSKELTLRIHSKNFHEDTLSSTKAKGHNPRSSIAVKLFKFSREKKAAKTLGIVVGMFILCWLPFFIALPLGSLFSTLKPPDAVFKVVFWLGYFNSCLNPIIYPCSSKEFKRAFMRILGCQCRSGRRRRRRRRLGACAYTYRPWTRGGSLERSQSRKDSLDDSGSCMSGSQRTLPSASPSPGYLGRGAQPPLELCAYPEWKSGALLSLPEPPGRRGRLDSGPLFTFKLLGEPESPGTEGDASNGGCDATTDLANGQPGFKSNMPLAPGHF
Description: as §1, §2, §3, §4

[1] = molecular target: T4, α-1A adrenoreceptor (rat submaxillary gland) (Rattus norvegicus, UniProt P43140); format: binding; settings: read-out: Radioligand Binding (Ki, nM) 1A (Rat)
T4 sequence (P43140 1-466): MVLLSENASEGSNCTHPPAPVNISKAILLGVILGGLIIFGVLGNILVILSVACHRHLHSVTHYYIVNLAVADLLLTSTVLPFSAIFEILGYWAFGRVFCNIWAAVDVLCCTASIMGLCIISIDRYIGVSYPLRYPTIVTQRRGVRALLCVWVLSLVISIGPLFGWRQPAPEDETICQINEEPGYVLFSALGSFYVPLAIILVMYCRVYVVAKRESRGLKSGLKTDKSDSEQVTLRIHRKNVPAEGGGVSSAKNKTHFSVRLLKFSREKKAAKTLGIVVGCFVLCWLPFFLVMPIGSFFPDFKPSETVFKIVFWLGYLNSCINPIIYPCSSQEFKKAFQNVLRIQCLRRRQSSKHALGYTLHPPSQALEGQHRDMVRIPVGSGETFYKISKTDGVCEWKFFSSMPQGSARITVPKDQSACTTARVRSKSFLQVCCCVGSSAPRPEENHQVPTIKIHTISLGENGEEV
Method: Additionally, binding affinity against the pharrnacologically defined α-1A adrenoreceptor (rat submaxillary gland) was measured.
as §3, §4

[2] = [3H]-prazosin radioligand, cloned receptor in LTK cell membranes
[3] = [3H]-prazosin radioligand, rat submaxillary gland membranes

Compound | Ki (α-1a adrenoreceptor) [nM] | Ki (α-1d adrenoreceptor) [nM] | Ki (α-1b adrenoreceptor) [nM] | Ki [1] [nM] | Ki (α-1a adrenoreceptor; [2]) [nM] | Ki (α-1d adrenoreceptor; [2]) [nM] | Ki (α-1b adrenoreceptor; [2]) [nM] | Ki [1, 3] [nM]
COc1cc2[nH]c(=O)n(CCCCN3C[C@@H]4COc5ccccc5[C@H]4C3)c(=O)c2cc1OC (racemic) [Example 80, 3-[4-((±)-trans-1,2,3,3a,4,9b-hexahydro-[1]-benzopyrano[3,4-c]pyrrol-2-yl)butyl]-6,7-dimethoxy-quinazoline-2,4(1H,3H)-dione hydrochloride] | 0.17 | 0.765 | 2.5 | 0.442 | – | – | – | –
COc1cc2[nH]c(=O)n(CCCN3CC[C@H]4c5c(OC)cccc5OC[C@@H]4C3)c(=O)c2cc1OC (racemic) [Example 83, 3-[3-(±)-trans-10-Methoxy-1,3,4,4a,5,10b-hexahydro-2H-[1]-benzopyrano[3,4-c]pyrido-3-yl)propyl]-6,7-dimethoxy-quinazoline-2,4(1H,3H)-dione hydrochloride] | – | – | – | – | 0.217 | 0.807 | 3.07 | 0.383
COc1cc(O)cc2c1[C@@H]1CN(CCCCn3c(=O)[nH]c4c(sc5ncc(-c6ccccc6)nc54)c3=O)C[C@@H]1CO2 (relative stereo) [Example 104, 3-[4-(-cis-7-Hydroxy-9-methoxy-1,2,3,3a,4,9b-hexahydro-[1]-benzopyrano[3,4-c]pyrrol-2-yl)butyl]-8-phenyl-pyrazino[2',3':4,5]thieno[3,2-d]pyrimidine-2,4(1H,3H)-dione] | – | – | – | – | 0.427 | 5.2 | 266 | 3.59
COc1cccc2c1[C@H]1CN(CCCCn3c(=O)[nH]c4c(sc5cccnc54)c3=O)C[C@@H]1CO2 [Example 4, 3-[4-((3aR,9bS)-trans-9-Methoxy-1,2,3,3a,4,9b-hexahydro-[1]-benzopyrano[3,4-c]pyrrol-2-yl)butyl]-pyrido[2',3':4,5]thieno[3,2-d]pyrimidine-2,4(1H,3H)-dione hydrochloride] | – | – | – | – | 0.049 | 0.377 | 0.867 | 0.097
COc1cccc2c1[C@H]1CN(CCCCn3c(=O)[nH]c4c(sc5c(Cl)ccnc54)c3=O)C[C@@H]1CO2 [Example 5, 3-[4-((3aR,9bS)-trans-9-Methoxy-1,2,3,3a,4,9b-hexahydro-[1]-benzopyrano[3,4-c]pyrrol-2-yl)butyl]-6-chloro-pyrido[2',3':4,5]thieno[3,2-d]pyrimidine-2,4(1H,3H)-dione dihydrochloride] | – | – | – | – | 0.086 | 0.638 | 2.01 | 0.268
COc1cccc2c1[C@H]1CN(CCCCn3c(=O)[nH]c4c(sc5ccc(Cl)nc54)c3=O)C[C@@H]1CO2 [Example 6, 3-[4-((3aR,9bS)-trans-9-Methoxy-1,2,3,3a,4,9b-hexahydro-[1]-benzopyrano[3,4-c]pyrrol-2-yl)butyl]-8-chloro-pyrido[2',3':4,5]thieno[3,2-d]pyrimidine-2,4(1H,3H)-dione dihydrochloride] | – | – | – | – | 0.173 | 0.302 | 2 | 0.409
COc1ccc2sc3c(=O)n(CCCCN4C[C@@H]5COc6cccc(OC)c6[C@H]5C4)c(=O)[nH]c3c2n1 [Example 7, 3-[4-((3aR,9bS)-trans-9-Methoxy-1,2,3,3a,4,9b-hexahydro-[1]-benzopyrano[3,4-c]pyrrol-2-yl)butyl]-8-methoxy-pyrido[2',3':4,5]thieno[3,2-d]pyrimidine-2,4(1H,3H)-dione hydrochloride] | – | – | – | – | 0.215 | 0.438 | 1.61 | 0.53
COc1cccc2c1[C@H]1CN(CCCCn3c(=O)[nH]c4c(sc5c(OC)ccnc54)c3=O)C[C@@H]1CO2 [Example 8, 3-[4-((3aR,9bS)-trans-9-Methoxy-1,2,3,3a,4,9b-hexahydro-[1]-benzopyrano[3,4-c]pyrrol-2-yl)butyl]-6-methoxy-pyrido[2',3':4,5]thieno[3,2-d]pyrimidine-2,4(1H,3H)-dione dihydrochloride] | – | – | – | – | 0.362 | 1.42 | 4.19 | 0.762
